Source: the NIST ThermoML archive (doi:10.1016/j.jct.2005.12.006)
Where “and” joins values, the source holds several entries; their conditions need not be identical. Equal values may be shown once. ± gives the expanded uncertainty stated by the source.

Assay: excess molar enthalpy (molar enthalpy of mixing); xn = mol fraction of the nth substance listed
Conditions: 298.15 K, 101 kPa, Liquid, Flow calorimetry

CCCCCC [hexane] + CCCCO
Conditions | excess molar enthalpy [kcal/mol]
x2 = 0.2065 | 0.128 ± 0.00406
x2 = 0.2516 | 0.129 ± 0.00406
x2 = 0.405 | 0.133 ± 0.00406
x2 = 0.5028 | 0.12 ± 0.00382
x2 = 0.6056 | 0.105 ± 0.00335
x2 = 0.7505 | 0.0658 ± 0.00208
x2 = 0.8055 | 0.0521 ± 0.00165

CCCCN(CCCC)CCCC [tributylamine] + CCCCCC
Conditions | excess molar enthalpy [kcal/mol]
x1 = 0.05 | -0.00112 ± 0.000502
x1 = 0.0995 | -0.00182 ± 0.000502
x1 = 0.1495 | -0.0022 ± 0.000502
x1 = 0.1997 | -0.0022 ± 0.000502
x1 = 0.2498 | -0.0021 ± 0.000502
x1 = 0.2992 | -0.00189 ± 0.000502
x1 = 0.3498 | -0.00167 ± 0.000502
x1 = 0.3991 | -0.00143 ± 0.000502
x1 = 0.449 | -0.00122 ± 0.000502
x1 = 0.4993 | -0.00103 ± 0.000502
x1 = 0.5488 | -0.000837 ± 0.000502
x1 = 0.599 | -0.000645 ± 0.000502
x1 = 0.6492 | -0.000502 ± 0.000502
x1 = 0.6989 | -0.000382 ± 0.000502
x1 = 0.7495 | -0.000311 ± 0.000502
x1 = 0.7991 | -0.000239 ± 0.000502
x1 = 0.8497 | -0.000191 ± 0.000502
x1 = 0.9 | -0.000143 ± 0.000502
x1 = 0.9501 | -9.56e-05 ± 0.000502

CCCCN(CCCC)CCCC [tributylamine] + CCCCO
Conditions | excess molar enthalpy [kcal/mol]
x2 = 0.0505 | 0.00913 ± 0.000526
x2 = 0.1006 | 0.0104 ± 0.000526
x2 = 0.1507 | 0.00648 ± 0.000526
x2 = 0.2009 | 0.00115 ± 0.000502
x2 = 0.2511 | -0.00574 ± 0.000526
x2 = 0.3013 | -0.0113 ± 0.00055
x2 = 0.3519 | -0.0181 ± 0.000621
x2 = 0.4018 | -0.024 ± 0.000789
x2 = 0.4514 | -0.0301 ± 0.00098
x2 = 0.5014 | -0.0352 ± 0.00115
x2 = 0.5513 | -0.0402 ± 0.00129
x2 = 0.6014 | -0.0439 ± 0.00141
x2 = 0.6512 | -0.0471 ± 0.00151
x2 = 0.7011 | -0.0489 ± 0.00155
x2 = 0.7517 | -0.0498 ± 0.00158
x2 = 0.8013 | -0.0491 ± 0.00155
x2 = 0.8514 | -0.0465 ± 0.00148
x2 = 0.9004 | -0.0403 ± 0.00129
x2 = 0.9503 | -0.0274 ± 0.000908
x2 = 0.9698 | -0.0182 ± 0.000645
x2 = 0.9853 | -0.0055 ± 0.00055

CCCCCCCCN(CCCCCCCC)CCCCCCCC [trioctylamine] + CCCCCC
Conditions | excess molar enthalpy
x1 = 0.0312 | -0.00115 kcal/mol and -0.00117 kcal/mol and -0.0012 kcal/mol
x1 = 0.0625 | -0.0021 kcal/mol and -0.00217 kcal/mol and -0.00208 kcal/mol
x1 = 0.0938 | -0.00249 ± 0.000502 kcal/mol
x1 = 0.125 | -0.00294 kcal/mol and -0.00277 kcal/mol
x1 = 0.1875 | -0.00301 kcal/mol and -0.00308 kcal/mol
x1 = 0.25 | -0.00263 kcal/mol and -0.00253 kcal/mol
x1 = 0.3125 | -0.00213 ± 0.000502 kcal/mol
x1 = 0.375 | -0.00179 ± 0.000502 kcal/mol
x1 = 0.4375 | -0.00155 ± 0.000502 kcal/mol
x1 = 0.4999 | -0.00127 ± 0.000502 kcal/mol
x1 = 0.5625 | -0.00098 ± 0.000502 kcal/mol
x1 = 0.6249 | -0.000669 ± 0.000502 kcal/mol
x1 = 0.625 | -0.000693 ± 0.000502 kcal/mol
x1 = 0.6873 | -0.000526 ± 0.000502 kcal/mol
x1 = 0.75 | -0.000406 ± 0.000502 kcal/mol
x1 = 0.8124 | -0.000215 kcal/mol and -0.000167 kcal/mol
x1 = 0.8749 | -9.56e-05 ± 0.000502 kcal/mol
x1 = 0.875 | -2.39e-05 kcal/mol
x1 = 0.9374 | -4.78e-05 kcal/mol

CCCCCCCCN(CCCCCCCC)CCCCCCCC [trioctylamine] + CCCCO
Conditions | excess molar enthalpy
x2 = 0.0623 | 0.0383 ± 0.00124 kcal/mol
x2 = 0.1246 | 0.053 ± 0.00167 kcal/mol
x2 = 0.1877 | 0.0618 ± 0.00196 kcal/mol
x2 = 0.2503 | 0.0668 ± 0.0021 kcal/mol
x2 = 0.3122 | 0.0689 ± 0.00217 kcal/mol
x2 = 0.3747 | 0.0696 ± 0.0022 kcal/mol
x2 = 0.4373 | 0.0682 ± 0.00215 kcal/mol
x2 = 0.5 | 0.0651 ± 0.00206 kcal/mol
x2 = 0.5625 | 0.0615 ± 0.00194 kcal/mol
x2 = 0.6251 | 0.0558 ± 0.00177 kcal/mol
x2 = 0.6876 | 0.0467 ± 0.00148 kcal/mol
x2 = 0.7501 | 0.0353 ± 0.00115 kcal/mol
x2 = 0.8125 | 0.0241 ± 0.000789 kcal/mol
x2 = 0.875 | 0.0152 kcal/mol and 0.015 kcal/mol
x2 = 0.9375 | 0.00612 ± 0.000526 kcal/mol
